Test results taken from patent US5250572A (priority 1992, dated 1993).

Columns and labels:
serotonin uptake = conditions: words, cited from earlier work
[1] = tested on: metabolism of concurrently administered drugs such as barbiturates or tricyclic antidepressants
[2] = Toxicity and therapeutic index (statements in words)
5HT1C receptor = molecular target: T1, 5HT1C receptor (Bos taurus, UniProt A0AAA9SBU1); experiment: Inhibition of 3H-mesulergine binding to 5HT1C receptor; conditions: read-out: Inhibition of Radioligand Binding to 5HT Receptor, 1C (IC50); bovine choroid plexus membranes, 2 nM 3H-mesulergine, 25° C., 30 min, pH 7.4; mean of three experiments
T1 sequence (A0AAA9SBU1 33-457): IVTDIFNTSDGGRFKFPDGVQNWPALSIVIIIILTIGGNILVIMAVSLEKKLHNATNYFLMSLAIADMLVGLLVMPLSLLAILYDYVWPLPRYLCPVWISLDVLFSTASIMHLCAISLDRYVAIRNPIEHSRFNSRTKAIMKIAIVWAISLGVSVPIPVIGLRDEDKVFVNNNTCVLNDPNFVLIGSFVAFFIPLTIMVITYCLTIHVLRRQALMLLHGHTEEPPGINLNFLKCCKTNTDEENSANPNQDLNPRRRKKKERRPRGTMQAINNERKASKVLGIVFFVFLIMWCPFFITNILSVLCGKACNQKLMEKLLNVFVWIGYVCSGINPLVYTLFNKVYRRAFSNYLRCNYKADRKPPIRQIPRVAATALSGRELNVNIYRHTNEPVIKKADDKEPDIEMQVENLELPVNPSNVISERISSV
Experimental: (§1) This general procedure is set forth by Wong et al., Life Sciences, 46, 231 (1990).
(§2) Bovine choroid plexus and brain tissues from male Sprague-Dawley rats was homogenized in 9 volumes of 0.32 M sucrose. After centrifugation at 1000×g for 10 minutes and then at 17,000×g for 20 minutes, a crude synaptosomal fraction was sedimented. The pellet was suspended in 100 volumes of 50 mM Tris-HCI, pH 7.4, incubated at 37° C. for 10 minutes, and centrifuged at 50,000×g for 10 minutes. The process was repeated, and the final pellet of membrane was suspended in ice-chilled 50 mM Tris-HCI buffer, pH 7.4.
(§3) Binding of ^3 H-mesulergine to the 5HT1C receptor and other serotonergic ^3 H-ligands to subtypes of 5HT receptors (^3 H-8-hydroxy-2-(di-n-propylamino)tetralin to 5HT1A; ^3 H-serotonin to 5HT1B and 5HT1D; ^3 H-ketanserin to 5HT2; and ^3 H-1-methyl-N-(8-methyl-8-azabicyclo[3.2.1]oct-3-yl)-1H-indazaole-3-carboxamide to 5HT3 receptors) was performed according to the method described in the above reference. Briefly, membranes isolated from bovine choroid plexus (for 5HT1C) or rat brain were incubated at 25° C. for 30 minutes in 2 ml of 50 mM Tris-HCl, pH 7.4; 10 mM pargyline, 0.6 mM ascorbic acid; 5 mM CaCl2; and 2 nM ^3 H-mesulergine or other tritiated ligand. […] Radioactivity was measured with a liquid scintillation spectrometer. […]

5HT1D = experiment: Inhibition of 3H-serotonin binding to 5HT1D receptor; design: species or system male Sprague-Dawley); conditions: read-out: Inhibition of Radioligand Binding to 5HT Receptor, 1D (IC50), rat brain membranes, 25° C., 30 min, pH 7.4
Experimental: as §1, §2, §3

5HT1B = molecular target: T2, 5HT1B (Rattus norvegicus, UniProt P28564); experiment: Inhibition of 3H-serotonin binding to 5HT1B receptor; design: species or system male Sprague-Dawley); conditions: rat brain membranes, 25° C., 30 min, pH 7.4
T2 construct: brain tissues from male Sprague-Dawley rats was homogenized; from tissue; host or cells: brain of male Sprague-Dawley rats, crude synaptosomal membranes
T2 sequence (P28564 whole entry): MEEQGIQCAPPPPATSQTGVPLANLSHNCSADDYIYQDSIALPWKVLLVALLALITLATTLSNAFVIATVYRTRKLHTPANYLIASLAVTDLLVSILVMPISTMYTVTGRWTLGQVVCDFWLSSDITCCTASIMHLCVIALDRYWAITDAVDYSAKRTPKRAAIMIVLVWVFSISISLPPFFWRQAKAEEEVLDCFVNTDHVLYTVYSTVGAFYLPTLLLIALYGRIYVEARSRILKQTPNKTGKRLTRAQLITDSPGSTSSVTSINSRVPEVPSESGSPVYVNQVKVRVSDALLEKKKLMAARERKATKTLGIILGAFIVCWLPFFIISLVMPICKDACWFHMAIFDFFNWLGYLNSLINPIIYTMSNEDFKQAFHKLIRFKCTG
Experimental: as §1, §2, §3

5HT1A = molecular target: T3, 5HT1A (Rattus norvegicus, UniProt P19327); experiment: Inhibition of 3H-8-hydroxy-2-(di-n-propylamino)tetralin binding to 5HT1A receptor; design: species or system male Sprague-Dawley); conditions: rat brain membranes, 25° C., 30 min, pH 7.4
T3 construct: brain tissues from male Sprague-Dawley rats was homogenized; from tissue; host or cells: brain of male Sprague-Dawley rats, crude synaptosomal membranes
T3 sequence (P19327 1-422): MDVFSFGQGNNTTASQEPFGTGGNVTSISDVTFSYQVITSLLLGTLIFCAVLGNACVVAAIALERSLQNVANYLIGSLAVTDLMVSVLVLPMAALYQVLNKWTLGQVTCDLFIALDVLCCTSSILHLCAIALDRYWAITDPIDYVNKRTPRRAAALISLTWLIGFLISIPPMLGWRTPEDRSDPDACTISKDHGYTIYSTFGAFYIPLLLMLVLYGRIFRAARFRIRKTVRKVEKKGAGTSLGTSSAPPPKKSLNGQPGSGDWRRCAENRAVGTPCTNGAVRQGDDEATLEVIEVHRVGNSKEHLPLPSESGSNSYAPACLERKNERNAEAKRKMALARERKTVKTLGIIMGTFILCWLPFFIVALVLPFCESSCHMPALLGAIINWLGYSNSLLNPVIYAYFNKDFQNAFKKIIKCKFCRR
Experimental: as §1, §2, §3

5HT3 receptors = molecular target: T4, 5HT3 receptors (Rattus norvegicus, UniProt P35563); experiment: Inhibition of 3H-1-methyl-N-(8-methyl-8-azabicyclo[3.2.1]oct-3-yl)-1H-indazaole-3-carboxamide binding to 5HT3 receptors; design: species or system male Sprague-Dawley); conditions: rat brain membranes, 25° C., 30 min, pH 7.4
T4 construct: brain tissues from male Sprague-Dawley rats was homogenized; from tissue; host or cells: brain of male Sprague-Dawley rats, crude synaptosomal membranes
T4 sequence (P35563 24-483): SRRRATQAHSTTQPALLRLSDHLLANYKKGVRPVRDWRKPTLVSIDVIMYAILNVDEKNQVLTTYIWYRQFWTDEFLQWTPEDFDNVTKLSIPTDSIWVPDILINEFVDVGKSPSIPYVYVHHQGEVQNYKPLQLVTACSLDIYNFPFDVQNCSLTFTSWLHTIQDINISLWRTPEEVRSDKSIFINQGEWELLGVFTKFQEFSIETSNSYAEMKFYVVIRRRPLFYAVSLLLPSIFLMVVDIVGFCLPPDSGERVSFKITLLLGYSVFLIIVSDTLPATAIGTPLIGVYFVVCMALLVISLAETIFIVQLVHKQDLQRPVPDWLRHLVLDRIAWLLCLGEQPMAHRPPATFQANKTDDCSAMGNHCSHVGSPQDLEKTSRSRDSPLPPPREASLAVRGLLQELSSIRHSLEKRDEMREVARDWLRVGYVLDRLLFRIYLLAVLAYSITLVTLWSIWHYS
Experimental: as §1, §2, §3

In the case of `NCC[C@H](Oc1ccc(C(F)(F)F)cc1)c1ccccc1` [(S)-norfluoxetine], the “activity as serotonin uptake inhibitor” value (serotonin uptake; relative to (R)-antipode, from copending application Ser. No. 07/486,478) is listed as “substantially more active than its (R)-antipode”.
In the case of `NCCC(Oc1ccc(C(F)(F)F)cc1)c1ccccc1` (racemic) [Norfluoxetine, 3-(4-trifluoromethylphenoxy)-3-phenylpropylamine], the “serotonin / monoamine uptake blockade” value (serotonin uptake; background, known from earlier patents) is listed as “block monoamine uptake, especially serotonin”.
For `NCC[C@@H](Oc1ccc(C(F)(F)F)cc1)c1ccccc1` [(R)-Norfluoxetine], the “effect on metabolism of concurrently administered drugs” value [1] was “little effect on metabolism of concurrently administered drugs”, the toxicity [2] was “relatively non-toxic” and the IC50 (5HT1C receptor) was 470 nM. It also gave an IC50 (5HT1D) of 101 µM, an IC50 (5HT1B) of 24 µM and an IC50 (5HT1A) of 22 µM. The IC50 (5HT3 receptors) was 12 µM.
